Values quoted from earlier work, collected in patent US20100144738A1, “INHIBITORS OF C-MET AND USES THEREOF” (priority 2006, published 2010).
Counter-ions that a name gives are not always drawn. Like-named read-outs stand apart in the source and are kept apart here.

Assays:
[1] = target: c-Met (Homo sapiens, UniProt P08581); conditions: single dose
[2] = test system: c-Met mutations

Chain of c-Met (P08581 25-1390): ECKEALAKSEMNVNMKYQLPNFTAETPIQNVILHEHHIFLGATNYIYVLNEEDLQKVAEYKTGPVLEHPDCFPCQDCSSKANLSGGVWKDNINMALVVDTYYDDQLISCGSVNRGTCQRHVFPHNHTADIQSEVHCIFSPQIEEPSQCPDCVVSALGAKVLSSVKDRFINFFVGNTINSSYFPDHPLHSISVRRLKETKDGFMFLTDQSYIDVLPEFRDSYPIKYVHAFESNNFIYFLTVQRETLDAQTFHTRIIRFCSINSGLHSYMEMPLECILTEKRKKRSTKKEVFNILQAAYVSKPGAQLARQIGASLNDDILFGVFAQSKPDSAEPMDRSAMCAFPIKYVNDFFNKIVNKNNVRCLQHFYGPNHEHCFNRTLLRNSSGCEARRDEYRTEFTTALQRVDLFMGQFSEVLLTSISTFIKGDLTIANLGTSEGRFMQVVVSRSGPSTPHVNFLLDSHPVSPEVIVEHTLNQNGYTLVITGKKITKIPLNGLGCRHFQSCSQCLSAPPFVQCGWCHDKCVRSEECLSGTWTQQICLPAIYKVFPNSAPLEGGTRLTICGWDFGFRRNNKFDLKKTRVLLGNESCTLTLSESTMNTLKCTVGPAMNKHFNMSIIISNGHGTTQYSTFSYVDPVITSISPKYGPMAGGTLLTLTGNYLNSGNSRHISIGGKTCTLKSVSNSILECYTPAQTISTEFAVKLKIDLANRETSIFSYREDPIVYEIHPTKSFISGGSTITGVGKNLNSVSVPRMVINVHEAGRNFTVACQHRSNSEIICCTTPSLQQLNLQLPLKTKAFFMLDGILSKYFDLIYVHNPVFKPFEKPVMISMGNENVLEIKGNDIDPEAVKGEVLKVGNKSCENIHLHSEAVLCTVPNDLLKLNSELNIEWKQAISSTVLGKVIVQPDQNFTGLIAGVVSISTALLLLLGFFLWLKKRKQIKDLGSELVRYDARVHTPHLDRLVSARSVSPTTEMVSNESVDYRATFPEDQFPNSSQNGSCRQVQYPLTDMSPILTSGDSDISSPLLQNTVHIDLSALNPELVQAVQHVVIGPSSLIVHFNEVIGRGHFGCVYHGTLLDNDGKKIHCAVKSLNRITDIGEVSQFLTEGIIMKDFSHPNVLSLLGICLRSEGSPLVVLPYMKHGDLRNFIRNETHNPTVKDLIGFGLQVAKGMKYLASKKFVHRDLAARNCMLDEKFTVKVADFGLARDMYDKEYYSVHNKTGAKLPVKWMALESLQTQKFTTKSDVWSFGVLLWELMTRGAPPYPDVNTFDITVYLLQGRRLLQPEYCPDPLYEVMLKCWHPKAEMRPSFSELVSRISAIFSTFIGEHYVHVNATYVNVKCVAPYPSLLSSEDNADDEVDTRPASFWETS

| SMILES | duration of inhibition of c-Met phosphorylation in tumor xenografts [1] [h] | sensitivity of mutations to imatinib ([2]; mutations Asp816Val/Phe/Tyr) | sensitivity of mutations to imatinib ([2]; mutations Val560Gly, Glu839Lys, Asp820Gly) |
| --- | --- | --- | --- |
| Cc1[nH]c(/C=C2\C(=O)Nc3ccc(S(=O)(=O)Cc4c(Cl)cccc4Cl)cc32)c(C)c1C(=O)N1CCC[C@@H]1CN1CCCC1 [PHA-665752] | ≤ 12 | – | – |
| Cc1ccc(NC(=O)c2ccc(CN3CCN(C)CC3)cc2)cc1Nc1nccc(-c2cccnc2)n1 [IMATINIB, imatinib mesylate] | – | resistant | sensitive |
